Experimental data: patent US20240016804A1, “METHODS AND MATERIALS FOR ASSESSING AND TREATING HYPERTENSIVE DISORDERS” (Mayo Foundation for Medical Education and Research, priority 2019, published 2024)

Tested on: PE-MSC
Test: Apoptosis assay for MSC (Annexin V, IncuCyte S3, Red Object Count), PE-MSC
Format: cell-based, human
Conditions: dose response 1, 2, 5 and 10 μM, 24 hours
Method: MSC isolation from adipose tissue: Abdominal fat tissue (3-5 g) obtained during C-section was cultured at 37° C./5% CO2 in Advanced MEM media supplemented with 5% platelet lysate (PLTmax, Mill Creek Life Sciences, Rochester, MN), which provides a robust growth medium. The third passage of cells was used for phenotype/function analysis. MSC were positive to CD90, CD44, and CD105, negative to CD34, CD31, and CD45 by Flow Cytometry (FlowSight™, Amnis, Seattle, WA), and were able to transdifferentiate into adipocytes, chondrocytes, and osteocytes. For studies in non-pregnant subjects, MSC were isolated from three healthy kidney donors at time of kidney donation.
Apoptosis was assessed by Annexin V reagent (Essen Bioscience) using the IncuCyte S3 Live-Cell Analysis System (Essen Bioscience).
The initial dose response experiments were performed to determine the optimal Dasatinib concentration using the apoptotic assay and IncuCyte S3 Live-Cell Analysis System (Essen Bioscience). Approximately 1×10^6 MSC (PE and NP) in passage #4, were treated with the senolytic drug, Dasatinib at concentrations of 1, 2, 5 and 10 μM (dissolved in 0.1% DMSO) for 24 hours. Three groups were analyzed: 1) cells incubated in media, 2) vehicle: cells treated with 0.1% DMSO, 3) cells treated with Dasatinib. […] Annexin V, added at the beginning of the treatment, labeled apoptotic cells yielding red fluorescence. […]

## Cc1nc(Nc2ncc(C(=O)Nc3c(C)cccc3Cl)s2)cc(N2CCN(CCO)CC2)n1 [Dasatinib]
  Optimal concentration (from ratios of apoptotic cells): 1 µM
